Publication PMC11375437, “Selective labelling of GBA2 in cells with fluorescent β-D-arabinofuranosyl cyclitol aziridines” (Chemical Science, 2024)

Target: T1, GBA2 (Mus musculus, UniProt Q69ZF3)
T1 construct: from tissue; host or cells: mouse brain homogenate
T1 sequence (Q69ZF3 1-918): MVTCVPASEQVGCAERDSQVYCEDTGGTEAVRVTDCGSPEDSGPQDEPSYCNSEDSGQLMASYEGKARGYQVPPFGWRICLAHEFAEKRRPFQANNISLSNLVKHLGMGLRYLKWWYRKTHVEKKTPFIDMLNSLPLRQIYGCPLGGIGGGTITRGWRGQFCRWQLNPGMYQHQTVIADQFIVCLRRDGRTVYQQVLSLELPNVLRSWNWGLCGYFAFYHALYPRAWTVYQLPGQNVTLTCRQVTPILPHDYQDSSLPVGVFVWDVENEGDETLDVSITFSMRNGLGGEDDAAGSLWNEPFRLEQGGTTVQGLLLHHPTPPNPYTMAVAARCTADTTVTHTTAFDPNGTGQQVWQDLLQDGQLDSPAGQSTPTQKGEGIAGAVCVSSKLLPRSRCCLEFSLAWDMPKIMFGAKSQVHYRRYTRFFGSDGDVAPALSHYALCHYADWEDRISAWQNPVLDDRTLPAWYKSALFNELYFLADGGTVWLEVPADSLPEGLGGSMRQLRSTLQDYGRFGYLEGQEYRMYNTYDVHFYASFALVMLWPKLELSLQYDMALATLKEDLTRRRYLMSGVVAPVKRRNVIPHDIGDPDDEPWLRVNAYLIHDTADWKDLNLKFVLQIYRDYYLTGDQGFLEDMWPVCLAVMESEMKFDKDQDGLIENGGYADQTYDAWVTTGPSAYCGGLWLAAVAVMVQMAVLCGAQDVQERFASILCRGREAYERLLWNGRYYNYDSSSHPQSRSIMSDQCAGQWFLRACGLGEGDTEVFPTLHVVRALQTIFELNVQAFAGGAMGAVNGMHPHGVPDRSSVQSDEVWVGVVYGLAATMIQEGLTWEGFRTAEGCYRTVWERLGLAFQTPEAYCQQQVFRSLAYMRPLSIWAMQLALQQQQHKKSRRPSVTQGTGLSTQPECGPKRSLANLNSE
Experiment: Labelling of GBA2 orthologue in mice brain homogenates
Type: biochemical
Details: 1 h at 37 °C; ABP 3 and 7 at 1 μM, ABP 4 and 5 at 2.5 μM
Protocol: GBA2 orthologs are highly conserved among different species. […] The labelling capability of β-D-Araf aziridine ABPs toward GBA2 orthologs in these species was therefore evaluated. Homogenates of zebrafish larvae or mice brain homogenates were incubated with β-D-Araf ABPs 3–5 or broad-spectrum ABP 7 (Fig. 4).
Fig. 4 Fluorescent gel images of selective labelling of GBA2 orthologues by β-D-Araf aziridine ABPs in different species. Cyclophellitol-aziridine ABP 7 (1 μM) and β-D-Araf ABPs (ABP 3 at 1 μM and ABP 4 and 5 at 2.5 μM) were incubated with homogenates of zebrafish (15 μg total protein) and mice brain (15 μg total protein) for 1 h at 37 °C. […]
were transferred to nitrocellulose membrane for western blotting. Ponceau S staining was used to show total protein loading. […]
2.12 Reactivity of β-D-Araf aziridines towards GBA2 orthologue in other species β-D-Araf aziridine ABP 3-5 or ABP 7 was incubated with homogenates of zebrafish (Danio rerio) larvae or mice brain for 1 h at 37 °C. […] The zebrafish homogenates were passed through a desalting column (in the same way as described for the irreversibility evaluation above) to remove interference from biological pigments when scanning at λEX 473 nm and λEM ≥ 510 nm for BODIPY green fluorescence. […]

## CN1/C(=C/C=C/C=C/C2=[N+](CCCCCC(=O)NCc3cn(CCCCCCCCN4[C@@H]5[C@H](CO)[C@@H](O)[C@H](O)[C@@H](O)[C@@H]54)nn3)c3ccccc3C2(C)C)C(C)(C)c2ccccc21 (stereo partly shown) [ABP 7]
  Labelling selectivity in mice brain homogenates: show cross-reactivity towards GBA1
